Data: PubChem BioAssay AID248 (DTP/NCI, 2004)
Several values for one entry are separate records, joined by “and”; a condition that tells them apart may be missing. Equal values may be shown once. Inconclusive results and toxic doses are left out. No stated cut-off is given here; in the data, active means T/C of 150% or more; inactive means T/C below 125%. Square brackets hold non-standard residues; d marks the D form. Peptide text beside a SMILES is read from it. * marks the point of attachment. ξ: configuration not given here. Cbz = O=C(OCc1ccccc1)*; ξI = CCC(C)C(N)C(=O)O

Test system: L1210 leukemia ip in BDF1 mice, survival T/C
Assay: NCI In Vivo Anticancer Drug Screen. Data for tumor model L1210 Leukemia (intraperitoneal) in B6D2F1 (BDF1) mice
Conditions: endpoint: mean survival time, higher = longer survival
Procedure, shortened: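 Antitumor effect is assessed in tumor-bearing animals. Survival in the compound arm is compared with a vehicle-dosed control arm and expressed as their quotient.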

[1] = dose: 100.0 mg/kg/injection, schedule: Q04DX003 (ip), vehicle: Klucel (hydroxypropylcellulose) (HPC)
[2] = dose: 200.0 mg/kg/injection, schedule: Q04DX003 (ip), vehicle: Klucel (hydroxypropylcellulose) (HPC)
[3] = dose: 400.0 mg/kg/injection, schedule: Q04DX003 (ip), vehicle: Klucel (hydroxypropylcellulose) (HPC)
[4] = dose: 100.0 mg/kg/injection, schedule: Q01DX001 (ip), vehicle: saline with Tween-80
[5] = dose: 200.0 mg/kg/injection, schedule: Q01DX001 (ip), vehicle: saline with Tween-80
[6] = dose: 100.0 mg/kg/injection, schedule: Q04DX002 (ip), vehicle: saline with Tween-80
[7] = dose: 200.0 mg/kg/injection, schedule: Q04DX002 (ip), vehicle: saline with Tween-80
[8] = dose: 400.0 mg/kg/injection, schedule: Q04DX002 (ip), vehicle: saline with Tween-80
[9] = dose: 100.0 mg/kg/injection, schedule: Q04DX003 (ip), vehicle: saline with Tween-80
[10] = dose: 200.0 mg/kg/injection, schedule: Q04DX003 (ip), vehicle: saline with Tween-80
[11] = dose: 400.0 mg/kg/injection, schedule: Q04DX003 (ip), vehicle: saline with Tween-80

Measured: T/C

O=C1CN=C(c2ccccn2)c2cc(Cl)ccc2N1
inactive: dose: 50.0 mg/kg/injection, schedule: Q01DX009 (ip), vehicle: water 98 % of control | dose: 100.0 mg/kg/injection, schedule: Q01DX009 (ip), vehicle: water 97 % of control | dose: 200.0 mg/kg/injection, schedule: Q01DX009 (ip), vehicle: water 104 % of control | dose: 200.0 mg/kg/injection, schedule: Q04DX003 (ip), vehicle: none 99 % of control | dose: 200.0 mg/kg/injection, schedule: Q04DX003 (ip), vehicle: water 100 % of control | dose: 267.0 mg/kg/injection, schedule: Q01DX009 (ip), vehicle: saline 97 % of control | dose: 400.0 mg/kg/injection, schedule: Q01DX009 (ip), vehicle: saline 110 % of control | dose: 400.0 mg/kg/injection, schedule: Q04DX003 (ip), vehicle: none 101 % of control | dose: 400.0 mg/kg/injection, schedule: Q04DX003 (ip), vehicle: water 102 % of control | dose: 600.0 mg/kg/injection, schedule: Q04DX003 (ip), vehicle: none 101 % of control | dose: 600.0 mg/kg/injection, schedule: Q04DX003 (ip), vehicle: water 102 % of control
active: dose: 400.0 mg/kg/injection, schedule: Q01DX009 (ip), vehicle: water 198 % of control

CCC(C)C(NC(=O)CNC(=O)CNC(=O)OCc1ccccc1)C(=O)OC (stereo not drawn) (Cbz-Gly-Gly-[ξI]-OMe)
inactive: [1] 98 % of control | [2] 96 % of control | [3] 98 % of control

CCCCCCCCC1CCC2C3CCC4CC(C(=O)O)C(C(=O)O)CC4(C)C3CCC12C (configuration not stated)
inactive: [4] 86 % of control | [5] 87 % of control

O=C(O)c1[nH]c(=O)[nH]c(=O)c1CN1CCCCC1
inactive: dose: 100.0 mg/kg/injection, schedule: Q01DX Z (ip), vehicle: methylcellulose (MC) 93 % of control | dose: 200.0 mg/kg/injection, schedule: Q01DX Z (ip), vehicle: methylcellulose (MC) 93 % of control

O=C(Nc1ccc(Cl)c(Cl)c1)c1ccc(Cl)cc1
inactive: [6] 103 % of control | [7] 95 % of control | [8] 95 % of control

COC1C2CCC1[N+](C)(C)CC2 (configuration not stated)
inactive: dose: 25.0 mg/kg/injection, schedule: Q01DX009 (ip), vehicle: saline 101 % of control | dose: 50.0 mg/kg/injection, schedule: Q01DX009 (ip), vehicle: saline 105 % of control | dose: 100.0 mg/kg/injection, schedule: Q01DX009 (ip), vehicle: saline 107 % of control and 110 % of control

OCC(O)CSc1c(Cl)c(Cl)c(Cl)c(Cl)c1Cl (configuration not stated)
inactive: [4] 98 % of control and 88 % of control | [6] 95 % of control and 101 % of control | [9] 92 % of control | [5] 93 % of control and 95 % of control | [7] 95 % of control and 96 % of control | [10] 99 % of control | dose: 400.0 mg/kg/injection, schedule: Q01DX001 (ip), vehicle: saline with Tween-80 95 % of control and 86 % of control | [8] 97 % of control and 108 % of control | [11] 94 % of control

COc1cc(/C=N\NC(=O)c2ccncc2)ccc1O
inactive: [9] 100 % of control | [10] 97 % of control | [11] 103 % of control

O=C(Oc1ccccc1)Oc1c(Cl)cc([N+](=O)[O-])cc1[N+](=O)[O-]
inactive: [1] 100 % of control | [2] 100 % of control | [3] 93 % of control

CCCCCCCCCC(=O)N1C(C)CCC1C (configuration not stated)
inactive: dose: 100.0 mg/kg/injection, schedule: Q04DX002 (ip), vehicle: other 103 % of control | dose: 200.0 mg/kg/injection, schedule: Q04DX002 (ip), vehicle: other 107 % of control
